In the supplement of paper PMC8960247:
Where a name gives a salt, the structure may show the parent alone. ± gives the standard error.

What was measured:
621-102 (TSC2-deficient) = assay: relative viability vs DMSO; higher = less cytotoxic; details: serum: 10% FBS, 72 h
621-103 (TSC2-rescued) = assay: as above; details: serum: 10% FBS, 72 h
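Also: immortalized renal angiomyolipoma cells stably carrying empty vector or TSC2, dosed in 384-well plates in DMEM, viability normalized to vehicle-treated wells within each plate.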

Structure (SMILES) | relative viability (621-102 (TSC2-deficient); 0.0001 µM) [%] | relative viability (621-102 (TSC2-deficient); 0.001 µM) [%] | relative viability (621-102 (TSC2-deficient); 0.01 µM) [%] | relative viability (621-102 (TSC2-deficient); 0.1 µM) [%] | relative viability (621-102 (TSC2-deficient); 1 µM) [%] | relative viability (621-102 (TSC2-deficient); 10 µM) [%] | relative viability (621-103 (TSC2-rescued); 0.0001 µM) [%] | relative viability (621-103 (TSC2-rescued); 0.001 µM) [%] | relative viability (621-103 (TSC2-rescued); 0.01 µM) [%] | relative viability (621-103 (TSC2-rescued); 0.1 µM) [%] | relative viability (621-103 (TSC2-rescued); 1 µM) [%] | relative viability (621-103 (TSC2-rescued); 10 µM) [%]
CC[C@@H]1C(=O)N(C)c2cnc(Nc3ccc(C(=O)N[C@H]4CC[C@H](N5CCN(CC6CC6)CC5)CC4)cc3OC)nc2N1C(C)C [BI6727 (Volasertib)] | 96.1 ± 4.3 | 72.9 ± 4.5 | 59.6 ± 3 | 42.4 ± 0.63 | 41.9 ± 0.7 | 1.64 ± 0.065 | 76.3 ± 0.95 | 61.81 ± 0.53 | 53.6 ± 0.88 | 49 ± 2 | 44.3 ± 1.4 | 5.99 ± 0.27
COc1ccc(-n2nc(C(N)=O)c3c2C(=O)N(c2ccc(N4CCCCC4=O)cc2)CC3)cc1 [Apixaban] | 107.9 ± 0.95 | 121 ± 0.2 | 112 ± 4.2 | 108 ± 3.1 | 91.79 ± 0.34 | 111 ± 2.4 | 117 ± 4.5 | 116.3 ± 0.34 | 115 ± 1.5 | 110 ± 3.2 | 104 ± 3.3 | 105 ± 4.6
COCCCOc1cc(C[C@@H](C[C@H](N)[C@@H](O)C[C@H](C(=O)NCC(C)(C)C(N)=O)C(C)C)C(C)C)ccc1OC [Aliskiren hemifumarate] | 110 ± 2.6 | 111 ± 2.7 | 106 ± 5.1 | 112 ± 1.9 | 98.8 ± 5.5 | 95.9 ± 5.5 | 105 ± 2.6 | 100 ± 1.1 | 104 ± 6.3 | 94.7 ± 4.8 | 96.59 ± 0.53 | 98.8 ± 2.7
O=C1[C@H](Cc2ccc(O)cc2)N2C(=O)CCN(C(=O)NCc3ccccc3)[C@H]2CN1Cc1cccc2ccccc12 [ICG-001] | 116 ± 2.7 | 105.3 ± 0.41 | 106 ± 1.1 | 102 ± 4.2 | 98.9 ± 2.3 | 52.9 ± 0.89 | 105 ± 2.9 | 109 ± 7.1 | 108.7 ± 0.74 | 103 ± 1.3 | 109 ± 1.5 | 37.8 ± 0.69
CC1(C)C(=O)N(CCN2CCC(C(=O)c3ccc(F)cc3)CC2)c2ccccc21 | 102.5 ± 0.86 | 103 ± 1.4 | 97.2 ± 4.5 | 97.5 ± 1.1 | 97 ± 1.2 | 97.4 ± 5.7 | 101 ± 2.5 | 97.9 ± 4.5 | 96.93 ± 0.26 | 101 ± 4.7 | 96.7 ± 2 | 94.8 ± 1.9
COc1nc(C)cnc1NS(=O)(=O)c1cccnc1-c1ccc(-c2nnco2)cc1 [Zibotentan (ZD4054)] | 118 ± 2.6 | 100 ± 3.1 | 109.9 ± 0.58 | 114 ± 2.4 | 105 ± 3.6 | 120 ± 1.6 | 103.31 ± 0.00057 | 99.8 ± 1.5 | 100.2 ± 0.14 | 100.5 ± 0.75 | 101 ± 1 | 102.5 ± 0.2
CCS(=O)(=O)Nc1ccc2c(c1)/C(=C(/Nc1ccc(CN3CCCCC3)cc1)c1ccccc1)C(=O)N2 [Hesperadin] | 105 ± 6.1 | 95.5 ± 3.5 | 77.4 ± 2.1 | 85.2 ± 1.8 | 59.2 ± 1.9 | 2.25 ± 0.32 | 100 ± 3.2 | 93.1 ± 1.2 | 97.46 ± 0.18 | 85.6 ± 0.14 | 42.75 ± 0.27 | 3.8 ± 0.2
CO/N=C(\C(=O)N[C@@H]1C(=O)N2C(C(=O)O)=C(CSC(=O)c3ccco3)CS[C@H]12)c1csc(N)n1 [Ceftiofur HCl] | 116 ± 6.8 | 112.1 ± 0.33 | 123 ± 2 | 117 ± 5.6 | 116 ± 2 | 110 ± 1.9 | 98.6 ± 4.3 | 99.23 ± 0.84 | 94.4 ± 3 | 97.5 ± 5.2 | 94.3 ± 1.6 | 94.2 ± 3.3
O=c1cc(N2CCOCC2)oc2c(-c3ccccc3)cccc12 | 95.6 ± 1.2 | 111 ± 5 | 119.9 ± 0.6 | 113.8 ± 0.48 | 104 ± 1.5 | 80.2 ± 1.1 | 99.7 ± 1.1 | 100.3 ± 0.45 | 99.792 ± 0.068 | 97.55 ± 0.48 | 101.1 ± 0.21 | 65.2 ± 1.9
